Experimental data: patent US12414948B2, “Methods” (INTRA-CELLULAR THERAPIES, INC., priority 2022, dated 2025)

Assays:
[1] = test system: hippocampal mRNA (Il1b, Il6, Tnfa, Il10, Icam1, Cldn5, Csf1); test: Hippocampal mRNA (qRT-PCR), delayed injection of lumateperone 30 minutes after LPS; assay type: in vivo, mouse; conditions: for Hippocampal mRNA expression (delayed injection) Cldn5 / Hippocampal mRNA expression (delayed injection) Csf1 / Hippocampal mRNA expression (delayed injection) Icam1: normalized to control
Experimental: (§1) All other reagents are obtained in the highest purity available from Sigma-Aldrich (St. Louis, MO) unless otherwise noted. […] Some rodents are given a cotreatment with a subcutaneous (SC) injection of lipopolysaccharide (LPS, 500 μg/kg; Sigma-Aldrich, ref #0127:B8) diluted in 0.9% injectable saline while control group animals receive injections of all vehicles matching the experimental conditions. […] On day 2, either no injection for naïve rats, or saline or LPS is injected (1 mg/kg, SC).
Quantitative Real-Time PCR. Mouse hippocampal tissue is homogenized with glass beads in 1 mL of TRIzol reagent using a BeadBeater (Biospec Products, Bartlesville, OK). Heavy phase-lock gel tubes enabled separation of phases following the addition of 400 μL chloroform to the sample and centrifugation at 12,000 rpm for 10 minutes at room temperature. RNA is extracted using Qiagen Rneasy kit (Qiagen, Hilden, Germany). For cDNA synthesis, 2 μg of total RNA is used (SuperScript IV Reverse Transcriptase; ThermoFisher Scientific, Waltham, MA). […] In the hippocampus, 4 key markers of pro- and anti-inflammatory cytokines and chemokines (Il1b: ID Mm00434228_m1, Tnfa: ID Mm00443258_m1, 116: ID Mm00446190_m1, and I110: ID Mm01288386_m1; ThermoFisher Scientific) are initially chosen for analysis (n=5-12 per group). In subsequent experiments, the transcripts for other markers of inflammation are chosen for analysis including Icam1 (ID Mm00516023_m1; a cell adhesion molecule involved in immune cell migration), Cldn5 (ID Mm00727012_s1; a tight junctions protein), colony stimulating factor 1 (Csf1: ID Mm00432686_m1; a factor that regulates microglia function) and its receptor Csf1r (ID Mm01266652_m1), and the nucleotide binding and oligomerization domain-like receptor family pyrin domain-containing 3 inflammasome complex (Nlrp3: Mm00840904_m1). Gapdh (ID Mm99999915_g1) is chosen as a housekeeping gene. QuantStudio 7 (ThermoFisher Scientific) is used for analyzing the plates (MicroAmp Optical 384-well plates; Applied Biosystems, Waltham, MA, and ThermoFisher Scientific) that are loaded with TaqMan Universal Master Mix II without uracil-DNA glycosylate in a 20 μl reaction volume using 100 ng cDNA per well. All mRNAs are measured by qRT-PCR on ABI Prism 7900HT system using TaqMan Gene Expression Assays. Ct values of genes of interest are normalized to that of the reference gene (Gapdh).
Samples are collected 1.5 hours later (i.e., 2 hours after LPS injection).

[2] = test system: hippocampal cytokine mRNA (Il1b, Il6, Tnfa, Il10); test: Hippocampal cytokine mRNA (qRT-PCR) after co-injection of LPS and lumateperone; assay type: in vivo, mouse; conditions: mice, 2 h, relative change normalized to control (Dct method)
Experimental: as §1
Animals. Adult, male C57BL/6 mice weighing 28-30 grams at the time of the experiment are housed in groups of 4 or 5 in small cages. Adult, male Sprague-Dawley rats weighing 175-200 grams at the time of arrival after shipping are housed in pairs. All animals are housed under standard laboratory housing conditions with a 12-hour light/dark cycle and ad libitum access to food and water.
Tissue Collection. […] Rats are euthanized 18 hours after LPS injection for sample collection. Hippocampi from mice and rats are rapidly dissected under RNAse-free conditions and placed in 1.5 mL Eppendorf tubes. When appropriate, samples are snap frozen in liquid nitrogen prior to storage at −80° C. until further analysis. Trunk blood is collected from mice into serum collection tubes, allowed to clot at room temperature for 1 hour, then centrifuged at 1,500 g for 10 minutes at 4° C.
Quantitative Real-Time PCR. Mouse hippocampal tissue is homogenized with glass beads in 1 mL of TRIzol reagent using a BeadBeater (Biospec Products, Bartlesville, OK). Heavy phase-lock gel tubes enabled separation of phases following the addition of 400 μL chloroform to the sample and centrifugation at 12,000 rpm for 10 minutes at room temperature. RNA is extracted using Qiagen Rneasy kit (Qiagen, Hilden, Germany). For cDNA synthesis, 2 μg of total RNA is used (SuperScript IV Reverse Transcriptase; ThermoFisher Scientific, Waltham, MA). The purity and concentration of RNA is measured with a Nanodrop spectrophotometer; the optical density (OD) 260/280 and OD 260/230 are within 1.8-2.3. In the hippocampus, 4 key markers of pro- and anti-inflammatory cytokines and chemokines (Il1b: ID Mm00434228_m1, Tnfa: ID Mm00443258_m1, 116: ID Mm00446190_m1, and I110: ID Mm01288386_m1; ThermoFisher Scientific) are initially chosen for analysis (n=5-12 per group). In subsequent experiments, the transcripts for other markers of inflammation are chosen for analysis including Icam1 (ID Mm00516023_m1; a cell adhesion molecule involved in immune cell migration), Cldn5 (ID Mm00727012_s1; a tight junctions protein), colony stimulating factor 1 (Csf1: ID Mm00432686_m1; a factor that regulates microglia function) and its receptor Csf1r (ID Mm01266652_m1), and the nucleotide binding and oligomerization domain-like receptor family pyrin domain-containing 3 inflammasome complex (Nlrp3: Mm00840904_m1). Gapdh (ID Mm99999915_g1) is chosen as a housekeeping gene. QuantStudio 7 (ThermoFisher Scientific) is used for analyzing the plates (MicroAmp Optical 384-well plates; Applied Biosystems, Waltham, MA, and ThermoFisher Scientific) that are loaded with TaqMan Universal Master Mix II without uracil-DNA glycosylate in a 20 μl reaction volume using 100 ng cDNA per well. All mRNAs are measured by qRT-PCR on ABI Prism 7900HT system using TaqMan Gene Expression Assays. Ct values of genes of interest are normalized to that of the reference gene (Gapdh).
Specific cytokines are elevated in serum or plasma of patients with MDD and other psychiatric disorders. Here, the gene and protein expression of a subset of pro- and anti-inflammatory cytokines is measured in mouse brain in response to an inflammatory challenge using a single dose of LPS (500 μg/kg) to induce acute brain inflammation. […] The results are shown in Table 1A as relative change in mRNA levels for each cytokine gene (Il1b, Il6, Tnfa, Il10) normalized to the control group using the Dct method (n=5-12 per group): […]

[3] = LPS 500 μg/kg SC-challenged mice, label LPS = LPS + vehicle, label Luma = Luma 3 mg/kg IP 30 min after LPS, 2 h after LPS
[4] = LPS 500 μg/kg SC-challenged mice, label LPS = LPS + vehicle, label Luma = Luma 3 mg/kg IP 30 min after LPS, 2 h after LPS, normalized to control (Dct)
[5] = mice, saline SC then Luma 3 mg/kg IP 30 min later (no LPS)
[6] = mice, saline SC then Luma 3 mg/kg IP 30 min later (no LPS), samples 1.5 h later, normalized to control (Dct)
[7] = Luma 0.3 mg/kg IP co-injected with LPS 500 μg/kg SC
[8] = Luma 3 mg/kg IP co-injected with LPS 500 μg/kg SC
[9] = Luma 8 mg/kg IP co-injected with LPS 500 μg/kg SC

Compound: lipopolysaccharide [LPS, reference compound]
- Hippocampal mRNA expression (delayed injection) Cldn5 [1, 3]: −0.63
- Hippocampal mRNA expression (delayed injection) Csf1 [1, 3]: 0.41
- Hippocampal mRNA expression (delayed injection) Icam1 [1, 3]: 4.33
- Hippocampal cytokine mRNA expression (delayed injection) IL-1b [1, 4]: 2.89
- Hippocampal cytokine mRNA expression (delayed injection) IL-6 [1, 4]: 1.10
- Hippocampal cytokine mRNA expression (delayed injection) IL-10 [1, 4]: 1.88
- Hippocampal cytokine mRNA expression (delayed injection) TNF-alpha [1, 4]: 2.33
- Hippocampal cytokine mRNA expression IL-1b ([2]; LPS 500 μg/kg SC + vehicle): 2.88
- Hippocampal cytokine mRNA expression IL-6 ([2]; LPS 500 μg/kg SC + vehicle): 1.03
- Hippocampal cytokine mRNA expression IL-10 ([2]; LPS 500 μg/kg SC + vehicle): 0.43
- Hippocampal cytokine mRNA expression TNF-alpha ([2]; LPS 500 μg/kg SC + vehicle): 1.75

Compound: CN1CCN2c3c(cccc31)[C@@H]1CN(CCCC(=O)c3ccc(F)cc3)CC[C@@H]12 [Luma, lumateperone]
- Hippocampal mRNA expression (delayed injection) Cldn5 [1, 3]: 0.20
- Hippocampal mRNA expression (delayed injection) Csf1 [1, 3]: −0.11
- Hippocampal cytokine mRNA expression (delayed injection) IL-6 [1, 4]: −0.10
- Hippocampal cytokine mRNA expression (delayed injection) TNF-alpha [1, 4]: 0.34
- Hippocampal mRNA expression (delayed injection) Cldn5 [1, 5]: 0.33
- Hippocampal mRNA expression (delayed injection) Csf1 [1, 5]: 0.05
- Hippocampal mRNA expression (delayed injection) Icam1 [1, 5]: 0.28
- Hippocampal cytokine mRNA expression (delayed injection) IL-1b [1, 6]: 0.90
- Hippocampal cytokine mRNA expression (delayed injection) IL-6 [1, 6]: −0.46
- Hippocampal cytokine mRNA expression (delayed injection) TNF-alpha [1, 6]: −0.31
- Hippocampal cytokine mRNA expression IL-6 [2, 7]: 0.52
- Hippocampal cytokine mRNA expression IL-10 [2, 7]: −0.28
- Hippocampal cytokine mRNA expression TNF-alpha [2, 7]: 0.43
- Hippocampal cytokine mRNA expression IL-1b [2, 8]: 0.85
- Hippocampal cytokine mRNA expression IL-6 [2, 8]: 0.15
- Hippocampal cytokine mRNA expression TNF-alpha [2, 8]: −0.09
- Hippocampal cytokine mRNA expression IL-1b [2, 9]: 0.43
- Hippocampal cytokine mRNA expression IL-6 [2, 9]: 0.16
- Hippocampal cytokine mRNA expression TNF-alpha [2, 9]: −0.24
